The target of the first test is ACVRL1 (human) (UniProt P37023). The test can be described thus: radiometric filter-binding kinase assay, Kinase HotSpot. The conditions noted are these: compound 0.5 µM; ATP 10 µM.
EPHA7 (human), sequence (Q15375 whole entry, looked up): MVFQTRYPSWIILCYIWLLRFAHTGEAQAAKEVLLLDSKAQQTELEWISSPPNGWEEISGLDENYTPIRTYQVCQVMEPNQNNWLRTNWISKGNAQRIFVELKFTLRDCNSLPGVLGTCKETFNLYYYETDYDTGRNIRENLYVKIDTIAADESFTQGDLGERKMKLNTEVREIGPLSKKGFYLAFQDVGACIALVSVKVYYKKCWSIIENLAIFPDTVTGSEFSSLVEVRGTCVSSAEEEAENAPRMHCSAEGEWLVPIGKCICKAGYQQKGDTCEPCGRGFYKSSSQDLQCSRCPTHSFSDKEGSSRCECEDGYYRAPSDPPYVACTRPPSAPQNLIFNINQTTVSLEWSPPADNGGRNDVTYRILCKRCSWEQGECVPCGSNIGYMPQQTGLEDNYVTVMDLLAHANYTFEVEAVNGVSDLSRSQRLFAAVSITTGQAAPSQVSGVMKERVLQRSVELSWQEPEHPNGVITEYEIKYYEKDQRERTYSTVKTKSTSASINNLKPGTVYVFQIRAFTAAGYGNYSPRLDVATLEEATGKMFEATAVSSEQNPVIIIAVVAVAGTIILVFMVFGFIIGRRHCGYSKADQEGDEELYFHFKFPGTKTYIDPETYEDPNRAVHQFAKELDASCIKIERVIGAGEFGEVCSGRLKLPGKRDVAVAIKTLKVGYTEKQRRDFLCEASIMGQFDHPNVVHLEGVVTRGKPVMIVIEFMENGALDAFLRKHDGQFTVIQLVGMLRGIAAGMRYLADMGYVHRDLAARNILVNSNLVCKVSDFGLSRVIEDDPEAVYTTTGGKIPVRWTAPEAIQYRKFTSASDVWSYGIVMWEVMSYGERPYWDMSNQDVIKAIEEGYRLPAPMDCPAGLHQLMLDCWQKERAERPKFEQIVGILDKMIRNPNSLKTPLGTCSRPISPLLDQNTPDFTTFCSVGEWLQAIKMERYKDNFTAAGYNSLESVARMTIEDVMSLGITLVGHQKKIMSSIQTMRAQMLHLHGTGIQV
CSNK1G3 (human), sequence (Q9Y6M4 whole entry, looked up): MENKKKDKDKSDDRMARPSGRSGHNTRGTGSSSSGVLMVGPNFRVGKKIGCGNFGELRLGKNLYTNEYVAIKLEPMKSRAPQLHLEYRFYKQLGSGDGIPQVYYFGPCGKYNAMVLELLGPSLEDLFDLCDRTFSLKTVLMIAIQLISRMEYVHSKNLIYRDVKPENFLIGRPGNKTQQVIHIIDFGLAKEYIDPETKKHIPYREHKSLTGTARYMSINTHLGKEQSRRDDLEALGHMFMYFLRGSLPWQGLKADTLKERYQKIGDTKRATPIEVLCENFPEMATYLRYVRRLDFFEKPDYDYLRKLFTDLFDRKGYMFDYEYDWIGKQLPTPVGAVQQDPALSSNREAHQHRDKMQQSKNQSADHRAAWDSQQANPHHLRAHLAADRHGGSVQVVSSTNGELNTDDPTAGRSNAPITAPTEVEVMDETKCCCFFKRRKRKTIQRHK
EPHA4 (human), sequence (P54764 whole entry, looked up): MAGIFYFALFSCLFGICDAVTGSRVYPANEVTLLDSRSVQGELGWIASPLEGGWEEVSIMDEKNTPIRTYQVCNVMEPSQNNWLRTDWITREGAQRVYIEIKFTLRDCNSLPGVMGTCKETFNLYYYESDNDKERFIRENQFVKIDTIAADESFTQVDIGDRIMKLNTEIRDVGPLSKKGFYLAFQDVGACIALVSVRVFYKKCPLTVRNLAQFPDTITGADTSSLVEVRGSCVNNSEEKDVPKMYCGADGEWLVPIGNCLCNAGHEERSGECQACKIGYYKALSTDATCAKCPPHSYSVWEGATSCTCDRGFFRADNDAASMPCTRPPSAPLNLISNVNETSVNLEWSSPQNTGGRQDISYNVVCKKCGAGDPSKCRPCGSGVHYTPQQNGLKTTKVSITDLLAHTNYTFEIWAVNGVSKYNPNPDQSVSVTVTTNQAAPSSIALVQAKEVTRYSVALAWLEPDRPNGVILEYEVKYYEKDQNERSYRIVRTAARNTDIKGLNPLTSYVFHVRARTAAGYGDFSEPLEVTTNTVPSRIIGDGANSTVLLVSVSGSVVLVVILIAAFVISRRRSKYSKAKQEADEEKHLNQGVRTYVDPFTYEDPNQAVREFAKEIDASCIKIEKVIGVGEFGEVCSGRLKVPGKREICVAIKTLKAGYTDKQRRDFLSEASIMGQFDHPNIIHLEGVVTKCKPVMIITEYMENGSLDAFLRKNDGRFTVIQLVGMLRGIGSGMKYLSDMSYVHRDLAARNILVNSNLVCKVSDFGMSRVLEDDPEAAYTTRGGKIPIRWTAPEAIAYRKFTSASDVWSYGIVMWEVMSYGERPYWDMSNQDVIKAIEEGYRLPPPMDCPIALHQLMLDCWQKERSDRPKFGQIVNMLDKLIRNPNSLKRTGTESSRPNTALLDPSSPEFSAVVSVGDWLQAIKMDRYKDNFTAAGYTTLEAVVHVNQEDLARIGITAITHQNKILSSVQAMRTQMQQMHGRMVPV
MAP3K3 (human), sequence (Q99759 whole entry, looked up): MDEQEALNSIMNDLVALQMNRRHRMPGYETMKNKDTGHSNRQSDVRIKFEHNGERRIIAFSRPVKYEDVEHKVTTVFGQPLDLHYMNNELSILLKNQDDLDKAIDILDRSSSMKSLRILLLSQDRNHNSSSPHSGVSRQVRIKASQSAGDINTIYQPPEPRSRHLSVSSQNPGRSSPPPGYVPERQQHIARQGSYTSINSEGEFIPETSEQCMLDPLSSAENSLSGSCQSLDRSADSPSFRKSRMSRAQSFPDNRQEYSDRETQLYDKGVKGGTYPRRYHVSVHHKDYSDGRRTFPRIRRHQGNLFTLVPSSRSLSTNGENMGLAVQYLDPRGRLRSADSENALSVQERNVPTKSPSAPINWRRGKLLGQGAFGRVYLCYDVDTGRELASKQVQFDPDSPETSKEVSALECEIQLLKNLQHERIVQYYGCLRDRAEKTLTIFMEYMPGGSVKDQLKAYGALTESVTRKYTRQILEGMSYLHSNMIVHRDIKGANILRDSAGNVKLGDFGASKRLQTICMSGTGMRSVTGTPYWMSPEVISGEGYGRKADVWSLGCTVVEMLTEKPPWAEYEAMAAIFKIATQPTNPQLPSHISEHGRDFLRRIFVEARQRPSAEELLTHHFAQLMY
For orientation: residual activity means the signal under treatment as a percentage of the control signal. For `COc1ccc(OC)c2c(=S)c3ccccc3[nH]c12`, the residual activity came to 99%.

Turning to `O=C1NC(=O)/C(=C\c2ccc3nccnc3c2)S1`, the residual activity worked out at 107%.

In the case of `CC(C)c1nn(-c2c(Cl)cccc2Cl)c2nc(Cc3ccc(OCCO)cc3)nc(O)c12`, the residual activity was found to be 103%.

A further test concerns the target AKT1 (human) (UniProt P31749). The description is as above. As to conditions: compound 0.5 µM; ATP 10 µM.
For `COc1ccc(OC)c2c(=S)c3ccccc3[nH]c12`, the residual activity turned out to be 89.7%.

Consider `O=C1NC(=O)/C(=C\c2ccc3nccnc3c2)S1`, for which the residual activity turned out to be 98.3%.

Take `CC(C)c1nn(-c2c(Cl)cccc2Cl)c2nc(Cc3ccc(OCCO)cc3)nc(O)c12`: the residual activity worked out at 94.7%.

In another test the target is ALK (human) (UniProt Q9UM73). Described as above. The conditions noted are these: compound 0.5 µM; ATP 10 µM.
With `COc1ccc(OC)c2c(=S)c3ccccc3[nH]c12`, the residual activity was determined as 105%.

Regarding `O=C1NC(=O)/C(=C\c2ccc3nccnc3c2)S1`, the residual activity came to 93.3%.

Consider `CC(C)c1nn(-c2c(Cl)cccc2Cl)c2nc(Cc3ccc(OCCO)cc3)nc(O)c12`, for which the residual activity was found to be 103%.

In another test the target is CAMK1 (human) (UniProt Q14012). The test is described as above. The conditions noted are these: compound 0.5 µM; ATP 10 µM.
For the molecule `COc1ccc(OC)c2c(=S)c3ccccc3[nH]c12`, the residual activity was found to be 75.2%.

In the case of `O=C1NC(=O)/C(=C\c2ccc3nccnc3c2)S1`, the residual activity was found to be 95.7%.

With `CC(C)c1nn(-c2c(Cl)cccc2Cl)c2nc(Cc3ccc(OCCO)cc3)nc(O)c12`, the residual activity is 85.1%.

In another test the target is CAMKK1 (human) (UniProt Q8N5S9). The description is as above. As to conditions: compound 0.5 µM; ATP 10 µM.
CAMKK1 (human), sequence (Q8N5S9 whole entry, looked up): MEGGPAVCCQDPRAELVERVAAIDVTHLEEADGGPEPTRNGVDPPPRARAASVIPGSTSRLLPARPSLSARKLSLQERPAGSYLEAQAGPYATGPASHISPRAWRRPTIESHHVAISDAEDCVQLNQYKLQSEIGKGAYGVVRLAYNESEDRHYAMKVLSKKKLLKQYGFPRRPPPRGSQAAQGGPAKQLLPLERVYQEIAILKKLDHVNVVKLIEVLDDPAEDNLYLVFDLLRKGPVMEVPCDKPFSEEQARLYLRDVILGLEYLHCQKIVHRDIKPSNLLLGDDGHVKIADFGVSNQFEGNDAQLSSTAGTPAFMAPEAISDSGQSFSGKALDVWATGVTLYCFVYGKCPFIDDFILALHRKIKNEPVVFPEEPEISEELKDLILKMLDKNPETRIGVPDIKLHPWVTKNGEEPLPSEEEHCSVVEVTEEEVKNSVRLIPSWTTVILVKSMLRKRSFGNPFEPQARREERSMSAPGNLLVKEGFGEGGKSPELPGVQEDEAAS
On to `COc1ccc(OC)c2c(=S)c3ccccc3[nH]c12`, for which the residual activity was found to be 108%.

`O=C1NC(=O)/C(=C\c2ccc3nccnc3c2)S1`: the residual activity was found to be 81.8%.

Take `CC(C)c1nn(-c2c(Cl)cccc2Cl)c2nc(Cc3ccc(OCCO)cc3)nc(O)c12`: the residual activity came to 100%.

The next test deals with CDK1 CCNA2 (human) (UniProt P06493+P20248). Described as above. As to conditions: compound 0.5 µM; ATP 10 µM.
For `COc1ccc(OC)c2c(=S)c3ccccc3[nH]c12`, the residual activity is 96.2%.

Turning to `O=C1NC(=O)/C(=C\c2ccc3nccnc3c2)S1`, the residual activity was 90.7%.

For the molecule `CC(C)c1nn(-c2c(Cl)cccc2Cl)c2nc(Cc3ccc(OCCO)cc3)nc(O)c12`, the residual activity came out at 7.71%.

The target of the next test is CDK1 CCNB1 (human) (UniProt P06493+P14635). The description is as above. The conditions noted are these: compound 0.5 µM; ATP 10 µM.
In the case of `COc1ccc(OC)c2c(=S)c3ccccc3[nH]c12`, the residual activity came out at 97.8%.

`O=C1NC(=O)/C(=C\c2ccc3nccnc3c2)S1`: the residual activity was 93.8%.

In the case of `CC(C)c1nn(-c2c(Cl)cccc2Cl)c2nc(Cc3ccc(OCCO)cc3)nc(O)c12`, the residual activity was -1.2%.

The next test concerns the target CDK3 CCNE1 (human) (UniProt Q00526+P24864). The test is described as above. The conditions noted are these: compound 0.5 µM; ATP 10 µM.
As for `COc1ccc(OC)c2c(=S)c3ccccc3[nH]c12`, the residual activity was 87.7%.

As to `O=C1NC(=O)/C(=C\c2ccc3nccnc3c2)S1`, the residual activity stood at 91.7%.

As for `CC(C)c1nn(-c2c(Cl)cccc2Cl)c2nc(Cc3ccc(OCCO)cc3)nc(O)c12`, the residual activity worked out at 6.14%.

The target of another test is CLK1 (human) (UniProt P49759). Described as above. As to conditions: compound 0.5 µM; ATP 10 µM.
Turning to `COc1ccc(OC)c2c(=S)c3ccccc3[nH]c12`, the residual activity came to 98.4%.

In the case of `O=C1NC(=O)/C(=C\c2ccc3nccnc3c2)S1`, the residual activity stood at 80.1%.

As to `CC(C)c1nn(-c2c(Cl)cccc2Cl)c2nc(Cc3ccc(OCCO)cc3)nc(O)c12`, the residual activity worked out at 94.7%.

Another test has as its target CSNK1G3 (human) (UniProt Q9Y6M4). The test is described as above. As to conditions: compound 0.5 µM; ATP 10 µM.
Consider `COc1ccc(OC)c2c(=S)c3ccccc3[nH]c12`, for which the residual activity turned out to be 86.2%.

Turning to `O=C1NC(=O)/C(=C\c2ccc3nccnc3c2)S1`, the residual activity was 79.9%.

With `CC(C)c1nn(-c2c(Cl)cccc2Cl)c2nc(Cc3ccc(OCCO)cc3)nc(O)c12`, the residual activity worked out at 95.7%.

The next test concerns the target DDR2 (human) (UniProt Q16832). The description is as above. The conditions noted are these: compound 0.5 µM; ATP 10 µM.
`COc1ccc(OC)c2c(=S)c3ccccc3[nH]c12`: the residual activity was 97.1%.

With `O=C1NC(=O)/C(=C\c2ccc3nccnc3c2)S1`, the residual activity amounted to 93.4%.

As for `CC(C)c1nn(-c2c(Cl)cccc2Cl)c2nc(Cc3ccc(OCCO)cc3)nc(O)c12`, the residual activity came to 96.3%.

The target in another test is DYRK1B (human) (UniProt Q9Y463). Described as above. The conditions noted are these: compound 0.5 µM; ATP 10 µM.
As for `COc1ccc(OC)c2c(=S)c3ccccc3[nH]c12`, the residual activity is 107%.

For `O=C1NC(=O)/C(=C\c2ccc3nccnc3c2)S1`, the residual activity stood at 31.3%.

`CC(C)c1nn(-c2c(Cl)cccc2Cl)c2nc(Cc3ccc(OCCO)cc3)nc(O)c12`: the residual activity stood at 99.9%.

A further test addresses DYRK3 (human) (UniProt O43781). The description is as above. As to conditions: compound 0.5 µM; ATP 10 µM.
Consider `COc1ccc(OC)c2c(=S)c3ccccc3[nH]c12`, for which the residual activity amounted to 98.2%.

In the case of `O=C1NC(=O)/C(=C\c2ccc3nccnc3c2)S1`, the residual activity was 71.5%.

With `CC(C)c1nn(-c2c(Cl)cccc2Cl)c2nc(Cc3ccc(OCCO)cc3)nc(O)c12`, the residual activity was determined as 99%.

A further test has as its target EPHA4 (human) (UniProt P54764). The test is described as above. The conditions noted are these: compound 0.5 µM; ATP 10 µM.
Turning to `COc1ccc(OC)c2c(=S)c3ccccc3[nH]c12`, the residual activity is 88.8%.

For `O=C1NC(=O)/C(=C\c2ccc3nccnc3c2)S1`, the residual activity came out at 96%.

Consider `CC(C)c1nn(-c2c(Cl)cccc2Cl)c2nc(Cc3ccc(OCCO)cc3)nc(O)c12`, for which the residual activity came to 102%.

Another test addresses EPHA7 (human) (UniProt Q15375). The test is described as above. As to conditions: compound 0.5 µM; ATP 10 µM.
For `COc1ccc(OC)c2c(=S)c3ccccc3[nH]c12`, the residual activity turned out to be 89.7%.

On to `O=C1NC(=O)/C(=C\c2ccc3nccnc3c2)S1`, for which the residual activity stood at 96.7%.

On to `CC(C)c1nn(-c2c(Cl)cccc2Cl)c2nc(Cc3ccc(OCCO)cc3)nc(O)c12`, for which the residual activity was 97.9%.

A further test has as its target FGR (human) (UniProt P09769). The test is described as above. As to conditions: compound 0.5 µM; ATP 10 µM.
Consider `COc1ccc(OC)c2c(=S)c3ccccc3[nH]c12`, for which the residual activity was 90.8%.

With `O=C1NC(=O)/C(=C\c2ccc3nccnc3c2)S1`, the residual activity amounted to 96.8%.

In the case of `CC(C)c1nn(-c2c(Cl)cccc2Cl)c2nc(Cc3ccc(OCCO)cc3)nc(O)c12`, the residual activity is 92%.

A further test deals with IGF1R (human) (UniProt P08069). The test is described as above. The conditions noted are these: compound 0.5 µM; ATP 10 µM.
IGF1R (human), sequence (P08069 whole entry, looked up): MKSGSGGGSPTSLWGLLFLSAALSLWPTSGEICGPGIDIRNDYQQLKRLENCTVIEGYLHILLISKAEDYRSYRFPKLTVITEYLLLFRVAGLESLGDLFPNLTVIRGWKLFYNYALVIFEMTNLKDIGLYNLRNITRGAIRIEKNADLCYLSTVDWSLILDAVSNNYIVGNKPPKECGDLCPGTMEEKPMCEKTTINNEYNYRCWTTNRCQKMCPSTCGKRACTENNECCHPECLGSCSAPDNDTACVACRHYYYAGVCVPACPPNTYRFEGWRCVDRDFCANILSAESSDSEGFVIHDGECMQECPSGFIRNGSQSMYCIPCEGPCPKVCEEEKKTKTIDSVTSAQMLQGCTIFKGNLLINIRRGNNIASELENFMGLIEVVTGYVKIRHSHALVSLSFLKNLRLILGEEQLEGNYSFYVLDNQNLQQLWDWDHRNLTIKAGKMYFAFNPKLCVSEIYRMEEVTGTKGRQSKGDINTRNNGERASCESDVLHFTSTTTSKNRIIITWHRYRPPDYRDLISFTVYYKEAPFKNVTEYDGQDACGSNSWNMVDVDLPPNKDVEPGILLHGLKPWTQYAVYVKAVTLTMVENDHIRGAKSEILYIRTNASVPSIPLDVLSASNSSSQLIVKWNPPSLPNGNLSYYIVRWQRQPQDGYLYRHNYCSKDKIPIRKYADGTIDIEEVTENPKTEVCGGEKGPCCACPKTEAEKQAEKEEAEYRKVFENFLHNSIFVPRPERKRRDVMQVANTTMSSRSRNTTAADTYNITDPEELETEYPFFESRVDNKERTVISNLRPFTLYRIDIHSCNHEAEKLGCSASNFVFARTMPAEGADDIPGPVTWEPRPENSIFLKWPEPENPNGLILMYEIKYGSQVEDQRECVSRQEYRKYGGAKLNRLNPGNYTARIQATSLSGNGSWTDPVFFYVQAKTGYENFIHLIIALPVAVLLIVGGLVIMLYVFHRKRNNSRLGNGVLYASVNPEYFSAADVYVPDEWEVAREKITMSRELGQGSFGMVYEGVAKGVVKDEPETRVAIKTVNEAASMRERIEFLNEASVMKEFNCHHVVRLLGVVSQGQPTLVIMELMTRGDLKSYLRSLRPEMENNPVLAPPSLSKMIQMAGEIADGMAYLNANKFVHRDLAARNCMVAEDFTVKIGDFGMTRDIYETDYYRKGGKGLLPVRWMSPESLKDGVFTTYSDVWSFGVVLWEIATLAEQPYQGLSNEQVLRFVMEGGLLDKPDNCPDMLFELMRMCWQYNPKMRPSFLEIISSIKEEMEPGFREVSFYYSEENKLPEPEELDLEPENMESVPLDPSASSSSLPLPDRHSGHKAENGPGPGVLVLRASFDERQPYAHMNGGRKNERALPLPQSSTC
Regarding `COc1ccc(OC)c2c(=S)c3ccccc3[nH]c12`, the residual activity was found to be 97.2%.

Turning to `O=C1NC(=O)/C(=C\c2ccc3nccnc3c2)S1`, the residual activity was 92%.

For `CC(C)c1nn(-c2c(Cl)cccc2Cl)c2nc(Cc3ccc(OCCO)cc3)nc(O)c12`, the residual activity was 24.8%.

In another test the target is JAK2 JH1 JH2 (human) (UniProt O60674). The test is described as above. The conditions noted are these: compound 0.5 µM; ATP 10 µM.
On to `COc1ccc(OC)c2c(=S)c3ccccc3[nH]c12`, for which the residual activity amounted to 96%.

As for `O=C1NC(=O)/C(=C\c2ccc3nccnc3c2)S1`, the residual activity stood at 97.4%.

For the molecule `CC(C)c1nn(-c2c(Cl)cccc2Cl)c2nc(Cc3ccc(OCCO)cc3)nc(O)c12`, the residual activity stood at 98.3%.

A further test has as its target MAP3K3 (human) (UniProt Q99759). Described as above. The conditions noted are these: compound 0.5 µM; ATP 10 µM.
Regarding `COc1ccc(OC)c2c(=S)c3ccccc3[nH]c12`, the residual activity was 117%.

Take `O=C1NC(=O)/C(=C\c2ccc3nccnc3c2)S1`: the residual activity stood at 100%.

`CC(C)c1nn(-c2c(Cl)cccc2Cl)c2nc(Cc3ccc(OCCO)cc3)nc(O)c12`: the residual activity stood at 110%.

A further test concerns the target MAP3K5 (human) (UniProt Q99683). Described as above. As to conditions: compound 0.5 µM; ATP 10 µM.
With `COc1ccc(OC)c2c(=S)c3ccccc3[nH]c12`, the residual activity worked out at 115%.

`O=C1NC(=O)/C(=C\c2ccc3nccnc3c2)S1`: the residual activity was determined as 102%.

Turning to `CC(C)c1nn(-c2c(Cl)cccc2Cl)c2nc(Cc3ccc(OCCO)cc3)nc(O)c12`, the residual activity is 119%.

A further test deals with MAP3K9 (human) (UniProt P80192). The description is as above. The conditions noted are these: compound 0.5 µM; ATP 10 µM.
Turning to `COc1ccc(OC)c2c(=S)c3ccccc3[nH]c12`, the residual activity is 102%.

Source of the values: the kinase profiling compilation of Christmann-Franck et al. (2016).
